# Measurements: BindingDB's records for doi:10.1021/jm00067a003 (Upjohn Laboratories, 1993)
# Target: 5-hydroxytryptamine receptor 1A (Bos taurus)
# Assay: Binding affinity at 5-hydroxytryptamine 1A receptor in bovine hippocampal preparation using [3H]8-OH-DPAT
smiles,measurement,value
CCCN(CC1CC1)[C@H]1CCc2ccc3[nH]c(C(N)=O)cc3c2C1,Ki,5.3 nM
